Reference: patent US20220227773A1, “FUSED RING COMPOUND, PREPARATION METHOD THEREFOR AND USE THEREOF” (SHANGHAI INSTITUTE OF MATERIA MEDICA, CHINESE ACADEMY OF …, priority 2019, published 2022)
Where a name gives a salt, the structure may show the parent alone. Read-outs that look alike come from different tables or passages of the source.

Key:
[1] = molecular target: T1, hSERT (5-HTT) in HEK293-hSERT cells (Homo sapiens, UniProt P31645); test: 5-HTT reuptake activity assay (fluorescence neurotransmitter transporter uptake kit); assay type: cell-based; conditions: serotonin reuptake inhibition
T1 construct: expressed in transfected cells; host or cells: HEK293

[2] = molecular target: T2, human recombinant 5-HT3 receptor (Homo sapiens, UniProt P46098); test: 5-HT3 receptor affinity assay (3H-BRL 43694 radioligand binding); conditions: read-out: inhibition (%) at 1 μM
T2 construct: expressed in transfected cells; host or cells: HEK293 (membrane preparation)
T2 sequence (P46098 24-478): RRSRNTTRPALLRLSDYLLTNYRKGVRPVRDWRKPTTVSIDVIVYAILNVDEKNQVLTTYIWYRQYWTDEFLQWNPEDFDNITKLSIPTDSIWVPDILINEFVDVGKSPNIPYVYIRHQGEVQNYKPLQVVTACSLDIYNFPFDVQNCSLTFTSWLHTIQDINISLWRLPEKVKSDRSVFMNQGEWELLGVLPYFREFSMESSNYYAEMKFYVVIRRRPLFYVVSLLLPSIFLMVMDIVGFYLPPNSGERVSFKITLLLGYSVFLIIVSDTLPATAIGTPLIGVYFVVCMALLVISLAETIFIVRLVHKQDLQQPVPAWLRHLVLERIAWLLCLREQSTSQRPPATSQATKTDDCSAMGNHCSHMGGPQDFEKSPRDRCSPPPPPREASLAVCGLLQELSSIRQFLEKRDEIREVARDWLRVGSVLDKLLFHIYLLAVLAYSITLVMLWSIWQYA

[3] = system: mice; test: Forced swimming test (FST) in mice; assay type: in vivo; conditions: Mus musculus
Description: 3. In Vivo Drug Efficacy Test (Mouse Forced Swimming Model)
Experimental animals: C57BL/6 mice (Shanghai Xipuer-Bikai Experimental Animal Co., Ltd.), male, 6 weeks old, weighing 15-20 g. ICR mice (Shanghai Xipuer-Bikai Experimental Animal Co., Ltd.), male, 6 weeks old, weighing 20-25 g. All the ordered mice were fed in a standard environment for 2-3 weeks before test.
Forced Swimming Test (FST): in the forced swimming apparatus, the water level is 45 cm, and the water temperature is 25° C. Before the experiment, the mice were placed in the experimental room for 1 h for adapting to the environment. At the beginning of the experiment, the mice were placed in the apparatus for 6min, and the whole process was recorded with a camera. When analyzing the data, only the immobility time of the mice in the last 4 min was counted, and the result was expressed by mean±SD.
The results were analyzed by one-way analysis of variance. […] FST: Forced swimming test; TST: Tail suspension test.

[4] = 1 μM compound, 0.5 nM 3H-BRL 43694, HEK293 membranes
[5] = ip, read-out: Effective dose (mg/kg)
[6] = po, FST, dose significantly reducing immobility time of mice, read-out: Effective dose
[7] = po, read-out: Effective dose (mg/kg)

T1 sequence (P31645 whole entry): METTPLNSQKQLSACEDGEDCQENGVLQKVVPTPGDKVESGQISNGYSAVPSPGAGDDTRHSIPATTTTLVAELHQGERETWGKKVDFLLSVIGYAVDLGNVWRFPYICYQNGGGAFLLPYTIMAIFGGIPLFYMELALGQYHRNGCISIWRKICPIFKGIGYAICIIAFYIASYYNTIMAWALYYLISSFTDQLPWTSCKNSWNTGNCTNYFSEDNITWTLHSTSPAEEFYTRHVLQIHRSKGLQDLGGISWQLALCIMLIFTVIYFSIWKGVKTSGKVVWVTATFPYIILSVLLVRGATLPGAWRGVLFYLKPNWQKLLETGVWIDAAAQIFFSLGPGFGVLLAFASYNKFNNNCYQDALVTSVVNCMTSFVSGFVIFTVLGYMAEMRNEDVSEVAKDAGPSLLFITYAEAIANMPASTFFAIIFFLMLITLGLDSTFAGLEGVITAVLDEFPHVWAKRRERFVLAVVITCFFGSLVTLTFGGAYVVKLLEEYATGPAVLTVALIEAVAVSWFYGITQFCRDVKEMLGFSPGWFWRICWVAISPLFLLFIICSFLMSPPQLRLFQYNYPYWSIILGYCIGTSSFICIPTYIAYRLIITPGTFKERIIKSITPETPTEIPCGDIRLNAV

| Structure (SMILES) | IC50 [1] [µM] | other results |
| --- | --- | --- |
| CN1CC2CN(c3cccc4ccsc34)CC2C1.O=C(O)C(=O)O (stereo not shown) [Example 11, 2-(Benzo[b]thiophen-7-yl)-5-methyloctahydropyrrolo[3,4-c]pyrrole oxalate] | < 0.05 | inhibition at 1 µM [2, 4]: 86%; minimal effective dose [3, 5]: 10 mg/kg |
| c1ccc2c(C3CC4CNCC4C3)cccc2c1 (stereo not shown) [Example 8, 5-(naphthalen-1-yl)octahydrocyclopenta[c]pyrrole hydrochloride] | < 0.2 | – |
| CN1CC2C=C(c3cc4ccccc4s3)CC2C1 (stereo not shown) [Example 61, 5-(Benzothiophen-2-yl)-2-methyl-1,2,3,3a,4,6a-hexahydrocyclopenta[c]pyrrole hydrochloride] | < 0.05 | – |
| CN(C)CCCC1(c2ccc(F)cc2)OCc2cc(C#N)ccc21 (stereo not shown) [Citalopram, reference compound] | – | minimal effective dose [3, 6]: 20 mg/kg |
| CN1CC2CN(c3cccc4ccccc34)CC2C1 (stereo not shown) [Example 26, 2-methyl-5-(naphthalen-1-yl)octahydropyrrolo[3,4-c]pyrrole oxalate] | < 0.2 | inhibition at 1 µM [2, 4]: 76% |
| O=C(O)/C=C\C(=O)O.c1cc2cc(N3CC4CNCC4C3)ccc2s1 (stereo not shown) [Example 14, 2-(Benzo[b]thiophen-5-yl)octahydropyrrolo[3,4-c]pyrrole maleate] | < 0.01 | inhibition at 1 µM [2]: 99%; minimal effective dose [3, 5]: 3 mg/kg |
| Clc1ccc(N2CCC3CNCC3CC2)cc1Cl (stereo not shown) [Example 35, 6-(3,4-dichlorophenyl)decahydropyrrolo[3,4-d]azepine] | < 0.01 | inhibition at 1 µM [2, 4]: 98%; minimal effective dose [3, 7]: 20 mg/kg |
| Clc1cccc(N2CC3CNCC3C2)c1Cl (stereo not shown) [Example 27, 2-(2,3-dichlorophenyl)octahydropyrrolo[3,4-c]pyrrole maleate] | < 0.05 | inhibition at 1 µM [2]: 104% |
| O=C(O)/C=C\C(=O)O.c1cc2ccc(N3CC4CNCC4C3)cc2s1 (stereo not shown) [Example 19, 2-(Benzo[b]thiophen-6-yl)octahydropyrrolo[3,4-c]pyrrole maleate] | < 0.01 | minimal effective dose [3, 5]: 10 mg/kg |
| CN1CC2CN(c3ccc(C(F)(F)F)cc3)CC2C1.O=C(O)C(=O)O (stereo not shown) [Example 81, 2-methyl-5-(4-(trifluoromethyl)phenyl)octahydropyrrolo[3,4-c]pyrrole oxalate] | < 0.05 | minimal effective dose [3, 5]: 10 mg/kg |
| Clc1ccc(N2CC3CCNCCC3C2)cc1Cl (stereo not shown) [Example 42, 2-(3,4-dichlorophenyl)decahydropyrrolo[3,4-d]azepine maleate] | < 0.01 | inhibition at 1 µM [2]: 103% |
| CN1CC2C=C(c3cc4ccccc4o3)CC2C1 (stereo not shown) [Example 59, 5-(Benzofuran-2-yl)-2-methyl-1,2,3,3a,4,6a-hexahydrocyclopenta[c]pyrrole hydrochloride] | < 0.05 | – |
| C1=C(c2ccc3ccccc3c2)CC2CNCC12 (stereo not shown) [Example 54, 5-(naphthalen-2-yl)-1,2,3,3a,4,6a-hexahydrocyclopenta[c]pyrrole hydrochloride] | < 0.05 | – |
| Fc1cc(N2CC3CNCC3C2)cc2sccc12 (stereo not shown) [Example 68, 2-(4-fluorobenzo[b]thiophen-6-yl)octahydropyrrolo[3,4-c]pyrrole dihydrochloride] | < 0.2 | – |
| CN1CC2CN(c3c(F)cc4ccccc4c3F)CC2C1 (stereo not shown) [Example 75, 2-(1,3-difluoronaphthalen-2-yl)-5-methyloctahydropyrrolo[3,4-c]pyrrole dihydrochloride] | < 0.1 | – |
| CN1CC2CN(c3cccc4c3CCC(=O)N4)CC2C1 (stereo not shown) [Example 93, 5-(5-methylhexahydropyrrolo[3,4-c]pyrrol-2(1H)-yl)-3,4-dihydroquinolin-2(1H)-one dihydrochloride] | < 0.2 | – |
| CN1[C@@H]2CC[C@H]1C[C@@H](OC(=O)c1cc(Cl)cc(Cl)c1)C2 [MDL72222, reference compound] | – | inhibition at 1 µM [2]: 93% |
| Cc1cccc(N2CC3CNCC3C2)c1C (stereo not shown) [Example 66, 2-(2,3-dimethylphenyl)octahydropyrrolo[3,4-c]pyrrole maleate] | < 0.05 | – |
| C1=C(c2cccc3ccsc23)CC2CNCC12 (stereo not shown) [Example 48, 5-(Benzothiophen-7-yl)-1,2,3,3a,4,6a-hexahydrocyclopenta[c]pyrrole hydrochloride] | < 0.05 | – |
| CNCC[C@H](Oc1cccc2ccccc12)c1cccs1 [Duloxetine, reference compound] | – | minimal effective dose [3, 7]: 20 mg/kg |

| Structure (SMILES) | IC50 [1] [µM] | other results |
| --- | --- | --- |
| c1cc(N2CC3CCNCCC3C2)c2sccc2c1 (stereo not shown) [Example 43, 2-(Benzo[b]thiophen-7-yl)decahydropyrrolo[3,4-d]azepine maleate] | < 0.05 | – |
| Fc1ccc2cc(N3CC4CNCC4C3)ccc2c1.O=C(O)/C=C\C(=O)O (stereo not shown) [Example 29, 2-(6-fluoronaphthalen-2-yl)octahydropyrrolo[3,4-c]pyrrole maleate] | < 0.01 | minimal effective dose [3, 6]: 5 mg/kg |
| CN1CC2C=C(c3ccc4ccccc4c3)CC2C1 (stereo not shown) [Example 57, 2-methyl-5-(naphthalen-2-yl)-1,2,3,3a,4,6a-hexahydrocyclopenta[c]pyrrole] | < 0.05 | – |
| Cc1cccc(N2CC3CN(C)CC3C2)c1C (stereo not shown) [Example 67, 2-(2,3-dimethylphenyl)-5-methyloctahydropyrrolo[3,4-c]pyrrole oxalate] | < 0.2 | – |
| CN1CC2CCN(c3ccc4sccc4c3)C2C1 (stereo not shown) [Example 65, 1-(Benzothiophen-5-yl)-5-methyloctahydropyrrolo[3,4-b]pyrrole oxalate] | < 0.05 | – |
| c1ccc2cc(N3CC4CCNCCC4C3)ccc2c1 (stereo not shown) [Example 6, 2-(naphthalen-2-yl)decahydropyrrolo[3,4-d]azepine maleate] | < 0.2 | – |
| CN1CC2CN(c3cc(F)cc4sccc34)CC2C1 (stereo not shown) [Example 70, 2-(6-fluorobenzothiophen-4-yl)-5-methyloctahydropyrrolo[3,4-c]pyrrole oxalate] | < 0.05 | – |
| c1cc2cc(N3CCC4CNCC43)ccc2s1 (stereo not shown) [Example 64, 1-(Benzothiophen-5-yl)octahydropyrrolo[3,4-b]pyrrole maleate] | < 0.05 | – |
| Clc1ccc(C2=CC3CNCC3C2)cc1Cl (stereo not shown) [Example 9, 5-(3,4-chlorophenyl)-1,2,3,3a,4,6a-hexahydrocyclopenta[c]pyrrole hydrochloride] | < 0.2 | – |
| CN1CC2CN(c3cc4ccccc4cc3F)CC2C1 (stereo not shown) [Example 76, 2-(3-fluoronaphthalen-2-yl)-5-methyloctahydropyrrolo [3,4-c]pyrrole dihydrochloride] | < 0.05 | – |
| C1=C(c2cccc3ccccc23)CC2CNCC12 (stereo not shown) [Example 56, 5-(naphthalen-1-yl)-1,2,3,3a,4,6a-hexahydrocyclopenta[c]pyrrole dihydrochloride] | < 0.05 | – |
| C1=C(c2cc3ccccc3o2)CC2CNCC12 (stereo not shown) [Example 52, 5-(Benzofuran-2-yl)-1,2,3,3a,4,6a-hexahydrocyclopenta[c]pyrrole hydrochloride] | < 0.2 | – |
| c1ccc2c(N3CC4CNCC4C3)csc2c1 (stereo not shown) [Example 23, 2-(Benzo[b]thiophen-3-yl)octahydropyrrolo[3,4-c]pyrrole maleate] | < 0.2 | – |
| CN1CC2C=C(c3cccc4ccccc34)CC2C1 (stereo not shown) [Example 71, 2-methyl-5-(naphthalen-1-yl)-1,2,3,3a,4,6a-hexahydrocyclopenta[c]pyrrole] | < 0.05 | – |
| CN1CC2CC(c3cc4ccccc4s3)CC2C1 (stereo not shown) [Example 62, 5-(benzothiophen-2-yl)-2-methyl-octahydrocyclopenta[c]pyrrole hydrochloride] | < 0.05 | – |
| Clc1ccc(N2CCC3CNCC3CC2)c(Cl)c1 (stereo not shown) [Example 90, 6-(2,4-dichlorophenyl)decahydropyrrolo[3,4-d]azepine hydrochloride] | < 0.05 | – |
| CN1CC2CN(c3ccc4cc(F)ccc4c3)CC2C1.O=C(O)/C=C\C(=O)O (stereo not shown) [Example 30, 2-(6-fluoronaphthalen-2-yl)-5-methyloctahydropyrrolo[3,4-c]pyrrole maleate] | < 0.01 | minimal effective dose [3, 6]: 20 mg/kg |
| Fc1cc(N2CC3CNCC3C2)c2ccsc2c1 (stereo not shown) [Example 69, 2-(6-fluorobenzothiophen-4-yl)octahydropyrrolo[3,4-c]pyrrole dihydrochloride] | < 0.2 | minimal effective dose [3, 5]: 10 mg/kg |
| C1=C(c2cc3ccccc3s2)CC2CNCC12 (stereo not shown) [Example 51, 5-(Benzothiophen-2-yl)-1,2,3,3a,4,6a-hexahydrocyclopenta[c]pyrrole hydrochloride] | < 0.05 | – |
| O=C(O)/C=C\C(=O)O.c1cc2cc(N3CC4CNCC4C3)ccc2o1 (stereo not shown) [Example 21, 2-(Benzofuran-5-yl)octahydropyrrolo[3,4-c]pyrrole maleate] | < 0.05 | minimal effective dose [3, 5]: 3 mg/kg |
